Test results reported in the kinase profiling compilation of Christmann-Franck et al. (2016).

Key:
Assay in all cases: radiometric filter-binding kinase assay
HIPK1 (human) = HIPK1 (human) (UniProt Q86Z02)
[1] = test system: SGK1 (human), O00141 [S422D]
DAPK1 (human) = DAPK1 (human) (UniProt P53355)
RPS6KA3 KD1 KD2 (human) = RPS6KA3 KD1 KD2 (human) (UniProt P51812)
MARK4 (human) = MARK4 (human) (UniProt Q96L34)
TAOK1 (human) = TAOK1 (human) (UniProt Q7L7X3)
GCK (human) = GCK (human) (UniProt Q12851)
CHEK1 (human) = CHEK1 (human) (UniProt O14757)
EEF2K (human) = EEF2K (human) (UniProt O00418)
BRSK2 (human) = BRSK2 (human) (UniProt Q8IWQ3)
PRKCZ (human) = PRKCZ (human) (UniProt Q05513)
EPHB4 (human) = EPHB4 (human) (UniProt P54760)
PRKCA (human) = PRKCA (human) (UniProt P17252)
MAPK3 (human) = MAPK3 (human) (UniProt P27361)
NUAK1 (human) = NUAK1 (human) (UniProt O60285)
CHEK2 (human) = CHEK2 (human) (UniProt O96017)
MAP3K5 (human) = MAP3K5 (human) (UniProt Q99683)
MAP3K1 (human) = MAP3K1 (human) (UniProt Q13233)
Sequence of MAP3K1 (human) (Q13233 whole entry, looked up): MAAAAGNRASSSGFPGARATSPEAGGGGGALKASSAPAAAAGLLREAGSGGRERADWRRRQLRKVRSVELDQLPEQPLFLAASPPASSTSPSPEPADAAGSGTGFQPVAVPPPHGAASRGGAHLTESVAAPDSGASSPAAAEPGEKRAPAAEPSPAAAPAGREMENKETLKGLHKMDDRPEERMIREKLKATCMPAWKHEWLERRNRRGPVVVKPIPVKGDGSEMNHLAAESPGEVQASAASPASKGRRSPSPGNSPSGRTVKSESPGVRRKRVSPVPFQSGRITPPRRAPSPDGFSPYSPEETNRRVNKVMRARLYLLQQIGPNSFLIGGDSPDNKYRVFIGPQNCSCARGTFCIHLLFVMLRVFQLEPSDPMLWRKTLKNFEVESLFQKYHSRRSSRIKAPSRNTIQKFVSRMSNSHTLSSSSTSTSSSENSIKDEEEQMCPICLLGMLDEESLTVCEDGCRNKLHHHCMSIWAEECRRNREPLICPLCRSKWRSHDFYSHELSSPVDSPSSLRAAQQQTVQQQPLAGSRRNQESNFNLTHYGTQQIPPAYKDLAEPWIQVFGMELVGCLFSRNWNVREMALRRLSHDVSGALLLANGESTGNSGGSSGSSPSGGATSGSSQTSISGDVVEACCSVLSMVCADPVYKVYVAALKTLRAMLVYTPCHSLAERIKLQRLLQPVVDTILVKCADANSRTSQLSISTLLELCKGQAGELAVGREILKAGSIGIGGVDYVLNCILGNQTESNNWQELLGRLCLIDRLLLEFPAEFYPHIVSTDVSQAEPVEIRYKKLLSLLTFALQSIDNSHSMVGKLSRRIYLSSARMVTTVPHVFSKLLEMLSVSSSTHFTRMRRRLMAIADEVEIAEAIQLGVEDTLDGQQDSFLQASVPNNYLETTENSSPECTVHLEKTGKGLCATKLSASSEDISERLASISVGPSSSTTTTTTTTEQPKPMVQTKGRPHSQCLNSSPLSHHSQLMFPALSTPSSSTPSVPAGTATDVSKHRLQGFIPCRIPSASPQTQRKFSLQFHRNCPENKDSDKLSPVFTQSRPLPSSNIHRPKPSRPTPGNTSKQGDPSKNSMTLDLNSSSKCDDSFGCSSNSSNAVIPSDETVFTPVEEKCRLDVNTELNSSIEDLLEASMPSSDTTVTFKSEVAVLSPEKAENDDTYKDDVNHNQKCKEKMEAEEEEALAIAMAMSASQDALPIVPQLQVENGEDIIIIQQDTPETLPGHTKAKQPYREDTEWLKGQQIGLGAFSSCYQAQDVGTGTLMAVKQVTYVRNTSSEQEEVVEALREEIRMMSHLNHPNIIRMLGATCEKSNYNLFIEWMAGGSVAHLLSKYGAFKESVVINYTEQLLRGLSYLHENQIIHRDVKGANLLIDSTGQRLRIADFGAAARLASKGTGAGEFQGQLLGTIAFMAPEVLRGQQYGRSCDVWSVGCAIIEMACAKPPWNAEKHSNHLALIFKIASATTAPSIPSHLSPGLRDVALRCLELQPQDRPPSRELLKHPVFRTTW

FLT1 (human) = FLT1 (human) (UniProt P17948); settings: compound 10.0 µM
JAK2 JH1 JH2 (human) = JAK2 JH1 JH2 (human) (UniProt O60674)
PAK6 (human) = PAK6 (human) (UniProt Q9NQU5)
MST4 (human) = MST4 (human) (UniProt Q9P289)
NTRK1 (human) = NTRK1 (human) (UniProt P04629)
PLK1 (human) = PLK1 (human) (UniProt P53350)
MAPK1 (human) = MAPK1 (human) (UniProt P28482)
RPS6KA5 KD1 KD2 (human) = RPS6KA5 KD1 KD2 (human) (UniProt O75582)
MARK3 (human) = MARK3 (human) (UniProt P27448)
RPS6KA1 KD1 KD2 (human) = RPS6KA1 KD1 KD2 (human) (UniProt Q15418)
HIPK3 (human) = HIPK3 (human) (UniProt Q9H422)
Sequence of HIPK3 (human) (Q9H422 whole entry, looked up): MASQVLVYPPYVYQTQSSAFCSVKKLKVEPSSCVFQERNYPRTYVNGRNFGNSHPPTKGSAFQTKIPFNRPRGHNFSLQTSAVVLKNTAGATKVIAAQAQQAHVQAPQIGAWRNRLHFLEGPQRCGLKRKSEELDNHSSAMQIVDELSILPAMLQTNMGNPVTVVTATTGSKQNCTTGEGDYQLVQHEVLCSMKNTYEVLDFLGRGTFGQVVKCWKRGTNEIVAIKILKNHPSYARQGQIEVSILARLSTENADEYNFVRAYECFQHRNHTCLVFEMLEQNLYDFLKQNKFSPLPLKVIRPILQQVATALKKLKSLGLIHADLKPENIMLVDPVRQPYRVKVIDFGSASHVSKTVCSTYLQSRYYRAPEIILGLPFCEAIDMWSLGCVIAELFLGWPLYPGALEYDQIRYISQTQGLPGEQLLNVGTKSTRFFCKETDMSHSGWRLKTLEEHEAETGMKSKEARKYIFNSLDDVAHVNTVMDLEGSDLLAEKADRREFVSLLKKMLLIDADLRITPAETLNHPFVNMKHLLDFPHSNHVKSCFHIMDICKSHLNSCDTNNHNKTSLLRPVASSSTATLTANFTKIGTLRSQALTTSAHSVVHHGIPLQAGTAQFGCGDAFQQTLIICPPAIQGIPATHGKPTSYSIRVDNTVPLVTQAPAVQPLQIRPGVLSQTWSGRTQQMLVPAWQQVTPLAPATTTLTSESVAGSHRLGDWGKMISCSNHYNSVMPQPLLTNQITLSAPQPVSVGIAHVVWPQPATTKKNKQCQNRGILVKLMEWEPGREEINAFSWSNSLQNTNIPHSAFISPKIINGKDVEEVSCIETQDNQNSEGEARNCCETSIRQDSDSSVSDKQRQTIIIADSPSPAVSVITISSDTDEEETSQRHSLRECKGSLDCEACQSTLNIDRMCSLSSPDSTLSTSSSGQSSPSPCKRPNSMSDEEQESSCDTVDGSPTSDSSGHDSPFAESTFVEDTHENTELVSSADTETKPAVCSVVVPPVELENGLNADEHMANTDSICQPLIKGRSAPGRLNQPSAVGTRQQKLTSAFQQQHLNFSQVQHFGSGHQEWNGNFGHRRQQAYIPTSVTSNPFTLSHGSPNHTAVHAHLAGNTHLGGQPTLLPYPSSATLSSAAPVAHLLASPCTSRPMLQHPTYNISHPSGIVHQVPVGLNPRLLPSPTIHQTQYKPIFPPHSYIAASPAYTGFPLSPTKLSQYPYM

CLK2 (human) = CLK2 (human) (UniProt P49760)
Sequence of CLK2 (human) (P49760 whole entry, looked up): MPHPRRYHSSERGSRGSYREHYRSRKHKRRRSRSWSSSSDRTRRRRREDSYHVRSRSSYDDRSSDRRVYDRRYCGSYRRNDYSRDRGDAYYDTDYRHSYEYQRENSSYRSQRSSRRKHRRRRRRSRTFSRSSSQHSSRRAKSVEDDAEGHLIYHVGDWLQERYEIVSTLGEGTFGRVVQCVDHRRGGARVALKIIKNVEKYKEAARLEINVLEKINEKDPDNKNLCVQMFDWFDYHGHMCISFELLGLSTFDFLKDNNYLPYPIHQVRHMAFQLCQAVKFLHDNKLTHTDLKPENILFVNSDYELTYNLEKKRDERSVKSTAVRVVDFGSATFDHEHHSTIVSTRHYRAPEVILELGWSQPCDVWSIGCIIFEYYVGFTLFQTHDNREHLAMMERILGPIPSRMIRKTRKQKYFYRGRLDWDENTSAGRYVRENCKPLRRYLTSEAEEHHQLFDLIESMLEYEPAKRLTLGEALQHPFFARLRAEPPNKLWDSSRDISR

AURKA (human) = AURKA (human) (UniProt O14965)
CDK2 CCNA2 (human) = CDK2 CCNA2 (human) (UniProt P20248+P24941)
STK3 (human) = STK3 (human) (UniProt Q13188)
ERBB4 (human) = ERBB4 (human) (UniProt Q15303)
SRC (human) = SRC (human) (UniProt P12931)

Sequence of SGK1 (human), O00141 [S422D] (O00141 whole entry S422D, looked up): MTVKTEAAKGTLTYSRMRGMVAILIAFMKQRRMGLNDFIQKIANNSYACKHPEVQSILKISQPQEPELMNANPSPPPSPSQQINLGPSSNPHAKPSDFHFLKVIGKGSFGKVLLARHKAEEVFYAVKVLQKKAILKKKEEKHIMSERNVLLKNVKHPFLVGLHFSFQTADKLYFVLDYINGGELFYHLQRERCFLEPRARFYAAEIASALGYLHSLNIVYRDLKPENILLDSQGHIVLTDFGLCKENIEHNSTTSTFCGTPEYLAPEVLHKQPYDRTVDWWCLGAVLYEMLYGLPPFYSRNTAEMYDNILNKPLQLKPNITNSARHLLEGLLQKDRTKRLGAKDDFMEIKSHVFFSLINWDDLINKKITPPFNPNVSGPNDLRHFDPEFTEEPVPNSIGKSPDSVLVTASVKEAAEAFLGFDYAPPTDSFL
Sequence of HIPK1 (human) (Q86Z02 whole entry, looked up): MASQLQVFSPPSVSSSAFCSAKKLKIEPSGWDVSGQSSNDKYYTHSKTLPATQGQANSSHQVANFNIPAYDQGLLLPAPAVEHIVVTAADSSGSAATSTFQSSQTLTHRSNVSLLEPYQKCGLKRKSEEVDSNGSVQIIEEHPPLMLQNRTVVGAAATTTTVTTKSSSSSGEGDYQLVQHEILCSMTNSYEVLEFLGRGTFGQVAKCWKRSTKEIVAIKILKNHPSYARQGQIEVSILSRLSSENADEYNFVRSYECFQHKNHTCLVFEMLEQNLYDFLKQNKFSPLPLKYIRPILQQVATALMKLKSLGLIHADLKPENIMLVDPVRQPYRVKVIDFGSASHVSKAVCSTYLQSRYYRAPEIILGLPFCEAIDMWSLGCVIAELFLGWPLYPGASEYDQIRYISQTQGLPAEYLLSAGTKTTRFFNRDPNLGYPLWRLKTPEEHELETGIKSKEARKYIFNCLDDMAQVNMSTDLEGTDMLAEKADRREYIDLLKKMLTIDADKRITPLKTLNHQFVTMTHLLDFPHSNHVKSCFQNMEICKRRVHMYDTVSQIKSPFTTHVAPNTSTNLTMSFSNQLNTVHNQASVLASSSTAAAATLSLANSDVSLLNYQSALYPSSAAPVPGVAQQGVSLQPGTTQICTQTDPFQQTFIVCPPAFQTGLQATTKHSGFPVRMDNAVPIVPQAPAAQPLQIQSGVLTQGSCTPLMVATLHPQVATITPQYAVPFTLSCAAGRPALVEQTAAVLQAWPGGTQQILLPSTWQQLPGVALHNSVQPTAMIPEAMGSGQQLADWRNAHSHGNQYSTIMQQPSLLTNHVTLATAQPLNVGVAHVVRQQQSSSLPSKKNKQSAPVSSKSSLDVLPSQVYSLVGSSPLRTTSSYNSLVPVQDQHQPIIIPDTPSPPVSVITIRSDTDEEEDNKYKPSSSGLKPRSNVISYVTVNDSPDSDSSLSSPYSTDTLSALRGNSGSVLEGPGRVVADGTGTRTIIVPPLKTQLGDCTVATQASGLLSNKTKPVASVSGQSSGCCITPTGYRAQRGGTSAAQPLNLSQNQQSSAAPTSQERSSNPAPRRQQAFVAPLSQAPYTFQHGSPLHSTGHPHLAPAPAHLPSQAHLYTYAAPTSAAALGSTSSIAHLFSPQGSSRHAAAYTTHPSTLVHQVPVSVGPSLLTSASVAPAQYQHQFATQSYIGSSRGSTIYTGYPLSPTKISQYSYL

Structure (SMILES): Cc1ccc(-c2ccc3c(ccc4sc5c(c43)NC[C@@H](C)NC5=O)n2)cn1
- residual activity (HIPK1 (human); compound 0.1 µM): 111%
- residual activity (HIPK1 (human); compound 1.0 µM): 104%
- residual activity (HIPK1 (human); compound 10.0 µM): 130%
- residual activity ([1]; compound 0.1 µM): 116%
- residual activity ([1]; compound 1.0 µM): 112%
- residual activity ([1]; compound 10.0 µM): 112%
- residual activity (DAPK1 (human); compound 0.1 µM): 103%
- residual activity (DAPK1 (human); compound 1.0 µM): 62%
- residual activity (DAPK1 (human); compound 10.0 µM): 15%
- residual activity (RPS6KA3 KD1 KD2 (human); compound 0.1 µM): 104%
- residual activity (RPS6KA3 KD1 KD2 (human); compound 1.0 µM): 79%
- residual activity (RPS6KA3 KD1 KD2 (human); compound 10.0 µM): 50%
- residual activity (MARK4 (human); compound 0.1 µM): 107%
- residual activity (MARK4 (human); compound 1.0 µM): 87%
- residual activity (MARK4 (human); compound 10.0 µM): 49%
- residual activity (TAOK1 (human); compound 0.1 µM): 109%
- residual activity (TAOK1 (human); compound 1.0 µM): 98%
- residual activity (TAOK1 (human); compound 10.0 µM): 70%
- residual activity (GCK (human); compound 0.1 µM): 109%
- residual activity (GCK (human); compound 1.0 µM): 89%
- residual activity (GCK (human); compound 10.0 µM): 19%
- residual activity (CHEK1 (human); compound 1.0 µM): 109%
- residual activity (CHEK1 (human); compound 10.0 µM): 112%
- residual activity (EEF2K (human); compound 0.1 µM): 106%
- residual activity (EEF2K (human); compound 1.0 µM): 97%
- residual activity (EEF2K (human); compound 10.0 µM): 85%
- residual activity (BRSK2 (human); compound 0.1 µM): 77%
- residual activity (BRSK2 (human); compound 1.0 µM): 32%
- residual activity (BRSK2 (human); compound 10.0 µM): 8%
- residual activity (PRKCZ (human); compound 0.1 µM): 115%
- residual activity (PRKCZ (human); compound 1.0 µM): 112%
- residual activity (PRKCZ (human); compound 10.0 µM): 106%
- residual activity (EPHB4 (human); compound 0.1 µM): 110%
- residual activity (EPHB4 (human); compound 1.0 µM): 106%
- residual activity (EPHB4 (human); compound 10.0 µM): 99%
- residual activity (PRKCA (human); compound 0.1 µM): 101%
- residual activity (PRKCA (human); compound 10.0 µM): 90%
- residual activity (MAPK3 (human); compound 0.1 µM): 111%
- residual activity (MAPK3 (human); compound 1.0 µM): 108%
- residual activity (NUAK1 (human); compound 1.0 µM): 102%
- residual activity (NUAK1 (human); compound 10.0 µM): 58%
- residual activity (CHEK2 (human); compound 0.1 µM): 112%
- residual activity (CHEK2 (human); compound 1.0 µM): 51%
- residual activity (CHEK2 (human); compound 10.0 µM): 9%
- residual activity (MAP3K5 (human); compound 0.1 µM): 106%
- residual activity (MAP3K5 (human); compound 1.0 µM): 80%
- residual activity (MAP3K5 (human); compound 10.0 µM): 10%
- residual activity (MAP3K1 (human); compound 0.1 µM): 102%
- residual activity (MAP3K1 (human); compound 1.0 µM): 109%
- residual activity (MAP3K1 (human); compound 10.0 µM): 109%
- residual activity (FLT1 (human)): 65%
- residual activity (JAK2 JH1 JH2 (human); compound 0.1 µM): 101%
- residual activity (JAK2 JH1 JH2 (human); compound 1.0 µM): 102%
- residual activity (JAK2 JH1 JH2 (human); compound 10.0 µM): 79%
- residual activity (PAK6 (human); compound 0.1 µM): 117%
- residual activity (PAK6 (human); compound 1.0 µM): 106%
- residual activity (PAK6 (human); compound 10.0 µM): 116%
- residual activity (MST4 (human); compound 1.0 µM): 101%
- residual activity (MST4 (human); compound 10.0 µM): 91%
- residual activity (NTRK1 (human); compound 1.0 µM): 100%
- residual activity (NTRK1 (human); compound 10.0 µM): 83%
- residual activity (PLK1 (human); compound 0.1 µM): 102%
- residual activity (PLK1 (human); compound 1.0 µM): 114%
- residual activity (PLK1 (human); compound 10.0 µM): 98%
- residual activity (MAPK1 (human); compound 0.1 µM): 102%
- residual activity (MAPK1 (human); compound 10.0 µM): 81%
- residual activity (RPS6KA5 KD1 KD2 (human); compound 0.1 µM): 120%
- residual activity (RPS6KA5 KD1 KD2 (human); compound 1.0 µM): 105%
- residual activity (RPS6KA5 KD1 KD2 (human); compound 10.0 µM): 99%
- residual activity (MARK3 (human); compound 0.1 µM): 113%
- residual activity (MARK3 (human); compound 1.0 µM): 115%
- residual activity (RPS6KA1 KD1 KD2 (human); compound 0.1 µM): 106%
- residual activity (RPS6KA1 KD1 KD2 (human); compound 1.0 µM): 100%
- residual activity (RPS6KA1 KD1 KD2 (human); compound 10.0 µM): 76%
- residual activity (HIPK3 (human); compound 0.1 µM): 112%
- residual activity (HIPK3 (human); compound 1.0 µM): 108%
- residual activity (HIPK3 (human); compound 10.0 µM): 96%
- residual activity (CLK2 (human); compound 0.1 µM): 86%
- residual activity (CLK2 (human); compound 1.0 µM): 43%
- residual activity (CLK2 (human); compound 10.0 µM): 9%
- residual activity (AURKA (human); compound 1.0 µM): 102%
- residual activity (AURKA (human); compound 10.0 µM): 84%
- residual activity (CDK2 CCNA2 (human); compound 0.1 µM): 111%
- residual activity (CDK2 CCNA2 (human); compound 1.0 µM): 93%
- residual activity (CDK2 CCNA2 (human); compound 10.0 µM): 57%
- residual activity (STK3 (human); compound 0.1 µM): 131%
- residual activity (STK3 (human); compound 10.0 µM): 100%
- residual activity (ERBB4 (human); compound 0.1 µM): 92%
- residual activity (ERBB4 (human); compound 1.0 µM): 105%
- residual activity (ERBB4 (human); compound 10.0 µM): 99%
- residual activity (SRC (human); compound 0.1 µM): 110%
- residual activity (SRC (human); compound 1.0 µM): 116%
- residual activity (SRC (human); compound 10.0 µM): 100%
